From US20050042674A9, “Common ligand mimics: thiazolidinediones and rhodanines” (priority 2002, published 2005)
Several values for one entry are separate records, joined by “and”; a condition that tells them apart may be missing. Identical values can stand only once. Like-named read-outs stand apart in the source and are kept apart here.

Assays:
[1] = target: isopropylmalate dehydrogenase (IPMDH) (Escherichia coli, UniProt P30125); assay: IPMDH kinetic assay, spectrophotometric reduction of NAD at 340 nm; assay type: biochemical, E. coli; settings: Examples 36/37, FIG. 16/17
Description: Inhibitor was incubated for 5 minutes at 37° C. in a 990 μl of a solution containing 20 mM potassium phosphate, pH 7.6, 0.3 M potassium chloride, 0.2 mM manganese chloride, 109 μM NAD, and 340 μM DL-threo-3-isopropylmalic acid (IPM). […] Reading of the samples was continued until 300 seconds. The final concentration of DMSO in the cuvette was 5% of the total assay volume. […] The substrate was kept at a level at least 10 times the Km.

[2] = target: dihydrofolate reductase (DHFR) (UniProt P00374); assay: DHFR kinetic assay, spectrophotometric oxidation of NADH at 340 nm; assay type: biochemical
Description: H2 folate was dissolved in DMSO to about 10 mM and then diluted with water to a concentration of 0.1 mM.
Solutions of 100 μl of the inhibitors in DMSO were prepared to provide a final DMSO concentration of 5% of the total assay volume. […] The oxidation reaction was then initiated with 8 μl of DHFR (0.047 mg/ml). […] Reading of the samples was continued until 300 seconds. Cuvette #1 always contained the control reaction (no inhibitor), and cuvette #2 always contained the positive control reaction in which Cibacron Blue at 3 μM was substituted for inhibitor to yield […] inhibition. The substrate was kept at a level at least 10 times the Km.

[3] = target: glyceraldehyde-3-phosphate dehydrogenase (GAPDH) (Escherichia coli, UniProt P0A9B2); assay: GAPDH kinetic assay, spectrophotometric reduction of NAD+ at 340 nm; assay type: biochemical, E. coli; settings: Examples 36/37, FIG. 16/17
Description: Reading of the samples was continued until 300 seconds. […] Cuvette #1 contained the control reaction (no inhibitor).
GAP for use in this experiment was deprotected from the diethyl acetal in the following manner. Water was boiled in recrystallizing dish. […] The tube was then immersed, while shaking, in the boiling water for 3 minutes.

[4] = target: inosine-5′-monophosphate dehydrogenase (IMPDH); assay: IMPDH kinetic assay, spectrophotometric reduction of NAD+ at 340 nm; assay type: biochemical; settings: for IC50: Examples 36/37, FIG. 16/17
Description: Solutions of 100 μl of the inhibitors in DMSO were prepared to provide a final DMSO concentration of 5% of the total assay volume. These solutions were incubated for 6 minutes at 37° C. in a 992 μl of a solution containing 0.1 M Tris-HCl, pH 8.0, 0.25 M KCl, 0.3% glycerol, 30 μM NAD+, and 600 μM IMP (inosine monophosphate). The reaction was then initiated with 8 μμl of IMPDH (0.75 μg/ml). […] Reading of the samples was continued until 300 seconds. Cuvette #1 contained the control reaction (no inhibitor), and cuvette #2 contained the positive control reaction in which Cibacron Blue was substituted for inhibitor. The substrate was kept at a level at least 10 times the Km.

[5] = target: T1, alcohol dehydrogenase (ADH) (Saccharomyces cerevisiae, UniProt P00330); assay: ADH kinetic assay, spectrophotometric reduction of NAD+ at 340 nm; assay type: biochemical, Bakers Yeast; settings: Examples 36/37, FIG. 16/17
T1 construct: ADH from Bakers Yeast; from tissue; host or cells: bakers yeast
T1 sequence (P00330 1-348): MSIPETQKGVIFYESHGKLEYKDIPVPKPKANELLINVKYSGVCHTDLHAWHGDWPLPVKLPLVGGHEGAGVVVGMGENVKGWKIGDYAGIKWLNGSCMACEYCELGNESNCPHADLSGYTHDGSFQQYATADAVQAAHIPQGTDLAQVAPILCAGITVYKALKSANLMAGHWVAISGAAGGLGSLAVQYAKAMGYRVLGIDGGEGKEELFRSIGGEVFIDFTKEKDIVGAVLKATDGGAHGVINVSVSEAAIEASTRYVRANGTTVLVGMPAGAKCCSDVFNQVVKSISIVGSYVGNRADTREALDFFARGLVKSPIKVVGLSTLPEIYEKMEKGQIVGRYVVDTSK
Description: Solutions of 100 μl of the inhibitors in DMSO were prepared to provide a final DMSO concentration of 5% of the total assay volume. […] The reaction was then initiated with 10 μl of ADH from Bakers Yeast (3.3 μg/ml; 1:400 dilution of 1.0 mg/ml). […] Reading of the samples was continued until 300 seconds. […] The substrate was kept at a level at least 10 times the Km. The final concentration of pyruvate was about 2.5 mM.
Where only a simple read was desired, as in the case of NAD+concentration determination, 13 μl (10 M stock) of ethanol was used to drive the reaction, and 10 μl of pure enzyme (1 mg/ml) was used. NAD+was soluble at 2 mM, which allowed the concentration determination step to be skipped. In this situation, the procedure was as follows. All of the ingredients except for the enzyme were mixed together. The solution was mixed well and the absorbance at 340 nm read. The enzyme was added and read again at OD 340 after the absorbance stopped changing, generally 10 to 15 minutes after the enzyme was added.

[6] = target: dihydrodipicolinate reductase (DHPR) (Escherichia coli, UniProt P04036); assay: DHPR kinetic assay, spectrophotometric oxidation of NADPH at 340 nm; assay type: biochemical; settings: Examples 36/37, FIG. 16/17
Description: DHPR was diluted in 10 mM HEPES at a pH of 7.4. DHPS (dihydrodipicolinate synthase) was not diluted and was stored in eppindorf tubes.
The L-ASA (L-aspartate semialdehyde) solution was prepared in the following manner. […] stock solution of ASA was prepared. 100 μl of the ASA stock solution was mixed with 150 μl of concentrated NaHCO3 and 375 μl of H2O. For use in the assay, 28.8 mM L-ASA was equal to 625 μl of the solution. The L-ASA stock solution was kept at a temperature of −20° C. After dilution, the pH of the 28.8 mM solution was checked and maintained between 1 and 2.
The solution for background detection was a 945 μl solution containing 0.1 HEPES (pH 7.8), 1 mM pyruvate, 6 μM NADPH, 40 μM L-ASA, and 7 μl of 1 mg/ml DHPS at 25° C. in the volumes provided above. The sample solution was then mixed and incubated for 10 minutes. Next, 500 nM solutions of the inhibitors and enough DMSO to provide a final DMSO concentration of 5% of the total assay volume were added. The solution was mixed and incubated for an additional 6 minutes.
In DHPR samples, 5 μl of the diluted DHPR enzyme were added. The sample was mixed for 20 seconds and then the reaction was run for 10 minutes. […] Reading of the samples was continued until 300 seconds. […] The substrate was kept at a level at least 10 times the Km. The final concentration of L-ASA was about 1 mM.

[7] = target: Human Aldose Reductase (AR) (Homo sapiens, UniProt P15121); assay: AR kinetic assay, spectrophotometric measurement of enzyme activity at 340 nm; assay type: biochemical
Description: (§1) Solutions of 100 μl of the inhibitors in DMSO were prepared to provide a final DMSO concentration of 5% of the total assay volume. […] The reaction was then initiated with 10 μl of Human Aldose Reductase (1:5 dilution of 0.55 mg/ml). […] Reading of the samples was continued until 300 seconds. The final DMSO concentration in the cuvette was 5%. […] The substrate was kept at a level at least 10 times the Km.

[8] = target: T2, HMG CoA reductase (HMGCoAR) (UniProt P04035); assay: HMGCoAR kinetic assay, spectrophotometric oxidation of NADPH at 340 nm; assay type: biochemical; settings: Examples 36/37, FIG. 16/17
T2 sequence (P04035 1-888): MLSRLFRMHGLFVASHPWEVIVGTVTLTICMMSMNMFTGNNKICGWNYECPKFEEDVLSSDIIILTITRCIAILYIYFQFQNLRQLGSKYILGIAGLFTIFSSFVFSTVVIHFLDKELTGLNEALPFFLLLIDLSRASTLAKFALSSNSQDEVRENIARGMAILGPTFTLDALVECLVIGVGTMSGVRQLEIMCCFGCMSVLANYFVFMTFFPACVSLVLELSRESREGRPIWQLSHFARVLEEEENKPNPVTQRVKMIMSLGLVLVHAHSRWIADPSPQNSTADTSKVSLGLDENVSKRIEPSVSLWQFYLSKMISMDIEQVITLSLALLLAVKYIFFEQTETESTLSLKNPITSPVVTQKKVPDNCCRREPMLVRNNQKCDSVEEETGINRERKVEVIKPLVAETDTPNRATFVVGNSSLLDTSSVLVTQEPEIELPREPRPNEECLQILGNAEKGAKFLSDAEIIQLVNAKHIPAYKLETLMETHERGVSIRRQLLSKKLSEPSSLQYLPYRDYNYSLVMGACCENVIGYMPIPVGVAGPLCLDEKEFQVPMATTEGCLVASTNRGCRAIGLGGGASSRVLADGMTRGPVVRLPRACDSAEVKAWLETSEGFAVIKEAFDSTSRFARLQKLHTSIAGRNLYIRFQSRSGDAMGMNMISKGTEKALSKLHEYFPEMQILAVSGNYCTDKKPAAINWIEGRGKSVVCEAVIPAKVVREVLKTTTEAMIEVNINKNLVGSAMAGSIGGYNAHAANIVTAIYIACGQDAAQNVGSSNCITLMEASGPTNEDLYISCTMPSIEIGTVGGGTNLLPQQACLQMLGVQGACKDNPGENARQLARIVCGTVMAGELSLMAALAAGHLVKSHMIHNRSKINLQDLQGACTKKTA
Description: For HMGCoAR analysis, the compounds were screened using a kinetic protocol that spectrophotometrically evaluates oxidation of NADPH.
Stock solutions of each of the reagents were prepared in the following concentrations. Dilutions of the stock solutions were prepared prior to running the assay in the concentrations indicated below. The enzyme was diluted in 1 M NaCl. To prepare the dilution buffer, 10 μl of HMGCoAR (1 mg/ml) was mixed with 133 μl of 3 M NaCl solution and 257 μl of 25 mM KH2PO4 buffer (pH 7.5; containing 50 mM NaCl, μl mM EDTA (ethylenediaminetetraacetic acid), and 5 mM DTT (dithiothreitol).
The HMGCoAR reaction was monitored at 340 nm prior to and after addition of the inhibitor to detect background reaction with the inhibitor. Solutions of 500 nM of the inhibitors in DMSO were prepared to provide a final DMSO concentration of 2% of the total assay volume. […] The reaction was then initiated with 5 μl of HMGCoAR enzyme (1:40 dilution of 0.65 mg/ml). After the enzyme was added, the solution was mixed for 20 seconds, and the reaction was run for 10 minutes. After a 50 second lag, the samples were read in a Cary spectrophotometer at 340 nm. Reading of the samples was continued until 300 seconds. […] The substrate was kept at a level at least 10 times the Km.

[9] = target: 1-deoxy-D-xylulose-5-phosphate reductase (DOXPR) (Escherichia coli, UniProt P45568); assay: DOXPR kinetic assay, spectrophotometric oxidation of NADPH at 340 nm; assay type: biochemical; settings: Examples 36/37, FIG. 16/17
Description: DOXPR was diluted in 10 mM HEPES at a pH of 7.4.
Solutions of the inhibitors in DMSO were prepared to provide a final DMSO concentration of 5% of the total assay volume. […] The oxidation reaction was then initiated with 10 μl of DOXP reductoisomerase (10 μg/ml). […] Reading of the samples was continued until 300 seconds. […] The substrate was kept at a level at least 10 times the Km.

[10] = target: T3, lactate dehydrogenase (LDH) (Oryctolagus cuniculus, UniProt P13491); assay: LDH kinetic assay, spectrophotometric oxidation of NADH at 340 nm; assay type: biochemical, Rabbit
T3 construct: LDH from Rabbit Muscle; from tissue; host or cells: rabbit muscle
Description: as §1, with “LDH from Rabbit Muscle (0.5 μ/ml; 1:2000” for “Human Aldose Reductase (1:5”, “1.0” for “0.55”, “seconds.” for “seconds. The final DMSO concentration in the cuvette was 5%.”

Chain of 1-deoxy-D-xylulose-5-phosphate reductase (DOXPR) (P45568 whole entry): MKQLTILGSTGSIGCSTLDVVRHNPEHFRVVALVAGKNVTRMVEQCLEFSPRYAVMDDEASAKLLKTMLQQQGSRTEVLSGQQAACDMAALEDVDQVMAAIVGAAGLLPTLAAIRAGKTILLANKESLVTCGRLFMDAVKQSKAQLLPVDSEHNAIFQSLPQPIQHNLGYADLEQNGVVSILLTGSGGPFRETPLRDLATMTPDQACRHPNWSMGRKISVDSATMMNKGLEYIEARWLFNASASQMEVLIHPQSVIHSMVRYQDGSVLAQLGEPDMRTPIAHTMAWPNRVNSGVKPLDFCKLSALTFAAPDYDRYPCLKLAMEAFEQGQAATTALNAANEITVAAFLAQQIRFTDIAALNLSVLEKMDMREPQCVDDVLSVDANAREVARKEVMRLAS
Chain of glyceraldehyde-3-phosphate dehydrogenase (GAPDH) (P0A9B2 whole entry): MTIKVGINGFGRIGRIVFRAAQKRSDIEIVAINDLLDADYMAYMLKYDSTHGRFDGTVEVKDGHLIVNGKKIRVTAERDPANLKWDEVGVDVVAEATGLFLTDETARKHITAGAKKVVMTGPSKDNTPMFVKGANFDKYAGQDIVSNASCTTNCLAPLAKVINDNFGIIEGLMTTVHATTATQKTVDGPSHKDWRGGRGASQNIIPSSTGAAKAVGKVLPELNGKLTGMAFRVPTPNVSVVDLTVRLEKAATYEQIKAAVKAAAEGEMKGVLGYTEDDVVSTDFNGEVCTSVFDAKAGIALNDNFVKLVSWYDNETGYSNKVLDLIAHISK
Chain of dihydrofolate reductase (DHFR) (P00374 whole entry): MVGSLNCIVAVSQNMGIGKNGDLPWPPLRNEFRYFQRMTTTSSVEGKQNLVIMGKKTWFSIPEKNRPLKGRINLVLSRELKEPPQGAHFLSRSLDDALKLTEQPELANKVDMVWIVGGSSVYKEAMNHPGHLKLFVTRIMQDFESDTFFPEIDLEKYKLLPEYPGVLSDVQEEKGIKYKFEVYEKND
Chain of dihydrodipicolinate reductase (DHPR) (P04036 whole entry): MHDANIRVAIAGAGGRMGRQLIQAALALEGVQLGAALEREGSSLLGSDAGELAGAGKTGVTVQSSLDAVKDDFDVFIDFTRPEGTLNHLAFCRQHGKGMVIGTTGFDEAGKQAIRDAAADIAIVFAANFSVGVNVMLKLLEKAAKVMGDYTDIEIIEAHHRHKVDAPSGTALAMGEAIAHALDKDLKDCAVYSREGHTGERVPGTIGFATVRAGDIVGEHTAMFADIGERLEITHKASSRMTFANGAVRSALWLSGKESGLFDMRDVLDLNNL
Chain of isopropylmalate dehydrogenase (IPMDH) (P30125 whole entry): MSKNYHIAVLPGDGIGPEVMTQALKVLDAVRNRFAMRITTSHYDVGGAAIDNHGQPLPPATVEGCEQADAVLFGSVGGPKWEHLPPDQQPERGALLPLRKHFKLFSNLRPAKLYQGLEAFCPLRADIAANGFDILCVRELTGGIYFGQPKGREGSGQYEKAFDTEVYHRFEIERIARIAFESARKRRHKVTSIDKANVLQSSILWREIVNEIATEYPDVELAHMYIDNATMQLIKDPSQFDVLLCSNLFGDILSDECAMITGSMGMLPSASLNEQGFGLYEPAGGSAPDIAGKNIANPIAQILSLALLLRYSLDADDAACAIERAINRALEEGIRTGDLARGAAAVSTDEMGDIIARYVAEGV

Structure (SMILES) | IC50 [1] | inhibition of DHFR ([2]; Example 37, result in words) | IC50 ([2]; Examples 36/37, FIG. 16/17; read-out: IC50 for DHFR) | IC50 ([3]; read-out: IC50 for GAPDH) | IC50 [4] | IC50 ([4]; listed as Sa) | IC50 [5] | IC50 ([6]; read-out: IC50 for DHPR) | IC50 ([7]; Examples 36/37, FIG. 16/17) | IC50 ([3]; IC50 for GAPDH) | inhibition of IMPDH ([4]; Example 37, result in words) | IC50 [8] | IC50 ([9]; IC50 for DOXPR) | IC50 ([6]; IC50 for DHPR) | IC50 ([10]; Examples 36/37, FIG. 16/17) | IC50 ([9]; read-out: IC50 for DOXPR) | inhibition of AR ([7]; Examples 36/37, result in words) | IC50 ([2]; read-out: IC50 for DHFR; Examples 36/37, FIG. 16/17) | IC50 ([10]; Example 37, FIG. 17)
O=C1NC(=O)C(=Cc2ccc(-c3ccc(C(=O)O)cc3)o2)S1 [Compound 5a, 4-[5-(2,4-dioxo-thiazolidin-5-ylidenemethyl)-furan-2-yl]-benzoic acid] | > 200 µM | No inhibiiton | > 75 µM | > 200 µM | 58.8 µM | > 200 µM | 116 µM and 140 µM | > 200 µM | 2.26 µM and 4.1 µM |  |  |  |  |  |  |  |  |  | 
O=C1NC(=O)C(=Cc2ccc(-c3cccc(C(=O)O)c3)o2)S1 [Compound 5b, 3-[5-(2,4-dioxo-thiazolidin-5-ylidenemethyl)-furan-2-yl]-benzoic acid] |  |  |  |  |  |  |  |  |  | > 400 µM | No inhibition | > 400 µM | > 400 µM | > 400 µM |  |  |  |  | 
O=C1NC(=O)C(=Cc2ccc(-c3ccc(O)c(C(=O)O)c3)o2)S1 [Compound 5e, 5-[5-(2,4-dioxo-thiazolidin-5-ylidenemethyl)-furan-2-yl]-2-hydroxy-benzoic acid] | > 50 µM | No inhibition |  | > 200 µM | 2.15 µM |  | 21 µM | > 200 µM |  |  |  |  |  |  | 46 µM | > 100 µM | No inhibition |  | 
O=C1NC(=S)SC1=Cc1ccc(-c2ccc(O)c(C(=O)O)c2)o1 [Compound 7e, 2-hydroxy-5-[5-(4-oxo-2-thioxo-thiazolidin-5-ylidenemethyl)-furan-2-yl]-benzoic acid] |  |  |  |  |  |  | 3.4 µM |  |  |  |  | 0.143 µM | 1.6 µM | 2.1 µM |  |  |  | 4.3 µM | 0.34 µM
